According to patent publication US6579857B1, “Combination cancer therapy comprising adenosine and deaminase enzyme inhibitors” (Evanston Northwestern Healthcare Research Institute, priority 1999, dated 2003):
Read-outs that look alike come from different tables or passages of the source.

Experiments:
[1] = biological target: T1, adenosine deaminase (ADA) (Homo sapiens, UniProt P00813); conditions: Cha et al. 1975; Agarwal et al. 1977; cited from earlier work
T1 sequence (P00813 1-363): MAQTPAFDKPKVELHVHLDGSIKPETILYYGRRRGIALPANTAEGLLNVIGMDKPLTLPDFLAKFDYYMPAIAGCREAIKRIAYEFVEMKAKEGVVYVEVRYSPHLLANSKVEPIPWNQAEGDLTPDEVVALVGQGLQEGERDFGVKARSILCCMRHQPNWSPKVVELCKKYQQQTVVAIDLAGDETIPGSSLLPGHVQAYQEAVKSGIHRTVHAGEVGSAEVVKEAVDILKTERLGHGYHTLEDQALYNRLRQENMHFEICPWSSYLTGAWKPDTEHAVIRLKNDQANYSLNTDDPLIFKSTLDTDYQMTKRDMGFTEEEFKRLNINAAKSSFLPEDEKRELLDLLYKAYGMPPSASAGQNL

[2] = tested on: OVCAR3 ovarian cancer cells; experiment: MTT cell viability assay, OVCAR3; conditions: for viability at 10 µM: Homo sapiens, OVCAR-3, 60 h, read-out: cell viability as a percentage of control
Protocol: For the experiments MCF7 breast cancer cells and OVCAR3 ovarian cancer cells (both obtained from the American Type Culture Collection (ATCC), Manassas, Va.) were cultured in RPMI 1640 media containing 10% fetal calf serum (Life Technologies, Gaithersburg, Md.). After 24 hours of culturing at 37° C. in 5% CO2, additional medium was added containing either adenosine (final concentration 10 μM), coformycin (final concentration 10 μM), or 10 μM each of adenosine and coformycin. Additional media alone was added to control cultures.
The cells were cultured in these chemotherapeutic media for an additional 60 hours, at which time the viability of the cells were determined using an MTT assay (Celltitre 98 Aqueous 1, Promega, Madison, Wis.).
The OVCAR3 ovarian cancer cell line was cultured as described in Example 1 for 24 hours and then treated with either 5 μM (final concentration) dipyridimole alone; 10 μM adenosine plus 10 μM coformycin alone; or the combination of these two treatments. In a control sample, culture media alone was added. The cultures were grown for an additional 60 hours and then analyzed for cell growth.
The same experiments were repeating using 5 μM (final concentration) 5′-amino-5′-deoxyadenosine alone; 5 μM adenosine plus 10 μM coformycin alone; or the combination of these two treatments.
The procedures described in Example 1 were repeated using the OVCAR 3 ovarian cancer cell line, and using as therapeutic agents 10 μM coformycin in combination with 10 μM of either adenosine, 2-chloroadenosine, 8-chloroadenosine, or 8-chloro-cAMP.

[3] = tested on: cell lines OVCAR 3, OVCAR 5, MCF7, and HT 29; experiment: Adenosine with CF or dCF, tumor cell toxicity assay (Example 4); type: cell-based; conditions: 5 μM adenosine with 5 μM CF or 5 μM dCF; 60 hours
Protocol: (§1) Additional media alone was added to control cultures.
The procedures described in Example 1 were repeated using cell lines OVCAR 3, OVCAR 5, MCF7, and HT 29 and using 5 μM adenosine in combination with either 5 μM CF or 5 μM dCF as the therapeutic combination of agents.

[4] = tested on: MCF7 breast cancer cells; experiment: MTT cell viability assay, MCF7; type: cell-based; conditions: Homo sapiens, read-out: cell viability as a percentage of control
Protocol: as §1

[5] = tested on: AMPDA; conditions: CF versus dCF; cited from earlier work
[6] = tested on: two cultured human colon carcinoma cell lines and Chinese hamster ovary (CHO K-I) cells; conditions: cited from earlier work; for toxicity when used alone: deoxycoformycin .001 to 1 μM, 2′-deoxyadenosine 0 to 500 μM
[7] = tested on: mouse melanoma cells; conditions: cited from earlier work
[8] = tested on: fibroblasts; conditions: cited from earlier work
[9] = tested on: lymphoid cells; conditions: cited from earlier work
[10] = tested on: neuronal cell; conditions: dose-dependent; cited from earlier work

OC[C@H]1O[C@@H](n2cnc3c2N=CNC[C@H]3O)[C@H](O)[C@@H]1O [coformycin]
Ki [1]: 0.025 nM
viability at 10 µM [2]: > 100%
potentiation of adenosine toxicity [3]: consistently potentiated to toxicity of the adenosine to a greater extent than the deoxycoformycin
viability at 10 µM ([4]; MCF7, 60 h): > 100%
fold more potent inhibitor of AMPDA [5]: 50 fold

OCCN(CCO)c1nc(N2CCCCC2)c2nc(N(CCO)CCO)nc(N3CCCCC3)c2n1 [dipyridamole]
cell growth with protective agent added to Ado/CF ([2]; OVCAR3, 5 μM dipyridimole + 10 μM adenosine + 10 μM coformycin, 60 hours): approximating that of the untreated control
cell growth as percentage of the control ([2]; OVCAR3, 5 μM dipyridimole alone or 10 μM adenosine plus 10 μM coformycin alone, 60 hours): comparable to the control

OC[C@H]1O[C@@H](n2cnc3c2NC=NC[C@H]3O)C[C@@H]1O [deoxycoformycin]
toxicity when used alone [6]: Neither compound was reported to be toxic when used alone

Nc1ncnc2c1ncn2[C@@H]1O[C@H](CO)[C@@H](O)[C@H]1O [adenosine]
concentration giving 80% growth inhibition [7]: 50 µM
viability at 10 µM [2]: > 100%
concentration required for similar (80%) growth inhibition [8]: 400 µM
viability at 10 µM ([4]; MCF7, 10 μM final concentration of each agent, 60 hours): > 100%
concentration required for similar (80%) growth inhibition [9]: 5 µM

Nc1ncnc2c1ncn2[C@H]1C[C@H](O)[C@@H](CO)O1 [2′-deoxyadenosine]
concentration of maximal neuronal cell toxicity [10]: 300 µM
toxicity when used alone [6]: Neither compound was reported to be toxic when used alone
concentration required to approach full cell growth inhibition ([6]; in combination with deoxycoformycin): 50 to 150 µM

NC[C@H]1O[C@@H](n2cnc3c(N)ncnc32)[C@H](O)[C@@H]1O [5′-amino-5′-deoxyadenosine]
block of toxic effects of Ado/CF combination ([2]; OVCAR3, 5 μM 5′-amino-5′-deoxyadenosine + 5 μM adenosine + 10 μM coformycin, 60 hours): essentially completely block
cell growth, agent alone ([2]; OVCAR3, 5 μM 5′-amino-5′-deoxyadenosine alone, 60 hours): ~80 % of control
